Assays:
[1] = target: T1, Adrenergic receptor alpha-2 (Homo sapiens, UniProt P08913+P18825+P18089); experiment: Binding affinity for Alpha-2 adrenergic receptor of CHO-C10 membrane preparation; design: species or system Cricetulus griseus
T1 sequence (P08913 whole entry): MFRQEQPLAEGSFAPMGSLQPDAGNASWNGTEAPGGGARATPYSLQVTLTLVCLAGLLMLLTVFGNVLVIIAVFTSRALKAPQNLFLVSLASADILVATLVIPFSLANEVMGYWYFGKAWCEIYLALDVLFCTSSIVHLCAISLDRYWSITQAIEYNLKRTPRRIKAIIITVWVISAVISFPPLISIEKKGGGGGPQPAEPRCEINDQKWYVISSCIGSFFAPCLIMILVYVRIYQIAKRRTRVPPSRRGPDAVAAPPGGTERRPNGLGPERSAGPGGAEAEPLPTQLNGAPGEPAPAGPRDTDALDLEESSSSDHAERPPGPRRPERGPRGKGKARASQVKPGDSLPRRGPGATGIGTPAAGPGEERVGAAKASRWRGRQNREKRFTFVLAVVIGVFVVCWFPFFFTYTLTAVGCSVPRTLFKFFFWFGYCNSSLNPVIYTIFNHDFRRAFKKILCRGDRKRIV
T1 sequence (P18825 whole entry): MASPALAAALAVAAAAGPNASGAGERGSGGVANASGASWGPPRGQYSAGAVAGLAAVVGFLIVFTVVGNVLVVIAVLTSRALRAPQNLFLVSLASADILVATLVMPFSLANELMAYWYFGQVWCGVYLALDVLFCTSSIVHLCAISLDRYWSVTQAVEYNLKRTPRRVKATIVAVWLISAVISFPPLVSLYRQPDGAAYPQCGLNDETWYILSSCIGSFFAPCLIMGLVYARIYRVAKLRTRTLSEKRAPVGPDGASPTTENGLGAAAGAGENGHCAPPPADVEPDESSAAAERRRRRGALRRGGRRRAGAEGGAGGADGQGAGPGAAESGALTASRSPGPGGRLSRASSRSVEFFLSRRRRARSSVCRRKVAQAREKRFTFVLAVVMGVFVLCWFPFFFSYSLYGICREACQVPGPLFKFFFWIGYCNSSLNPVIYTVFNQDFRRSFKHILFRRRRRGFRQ
T1 sequence (P18089 whole entry): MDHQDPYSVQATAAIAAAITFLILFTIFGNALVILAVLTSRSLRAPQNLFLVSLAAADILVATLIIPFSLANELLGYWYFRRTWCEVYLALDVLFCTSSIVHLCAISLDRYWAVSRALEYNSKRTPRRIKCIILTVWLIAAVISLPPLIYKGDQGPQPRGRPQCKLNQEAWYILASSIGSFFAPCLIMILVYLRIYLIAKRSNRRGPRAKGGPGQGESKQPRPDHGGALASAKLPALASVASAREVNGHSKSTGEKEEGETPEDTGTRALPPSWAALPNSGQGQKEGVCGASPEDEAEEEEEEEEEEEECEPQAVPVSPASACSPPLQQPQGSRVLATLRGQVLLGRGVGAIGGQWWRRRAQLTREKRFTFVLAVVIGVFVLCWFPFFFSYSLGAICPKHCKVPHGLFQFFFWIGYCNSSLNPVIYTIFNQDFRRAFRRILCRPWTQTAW

[2] = target: T2, Adrenergic receptor alpha-1 (Homo sapiens, UniProt P35348+P25100+P35368); experiment: Binding affinity for Alpha-1 adrenergic receptor of human cerebral cortex membrane; format: tissue-based
T2 sequence (P35348 whole entry): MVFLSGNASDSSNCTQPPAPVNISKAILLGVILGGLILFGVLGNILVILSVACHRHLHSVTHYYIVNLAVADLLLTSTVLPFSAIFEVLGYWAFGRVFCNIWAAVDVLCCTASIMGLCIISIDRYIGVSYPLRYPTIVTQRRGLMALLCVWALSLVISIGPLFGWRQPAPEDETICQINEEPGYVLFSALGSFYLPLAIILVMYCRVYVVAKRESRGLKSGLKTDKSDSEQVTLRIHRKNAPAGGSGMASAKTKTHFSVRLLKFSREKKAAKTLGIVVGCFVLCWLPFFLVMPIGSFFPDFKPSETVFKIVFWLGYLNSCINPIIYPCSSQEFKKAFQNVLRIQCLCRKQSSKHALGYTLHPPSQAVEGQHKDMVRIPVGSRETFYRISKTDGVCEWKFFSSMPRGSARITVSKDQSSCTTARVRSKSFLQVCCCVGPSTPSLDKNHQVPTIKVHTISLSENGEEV
T2 sequence (P25100 whole entry): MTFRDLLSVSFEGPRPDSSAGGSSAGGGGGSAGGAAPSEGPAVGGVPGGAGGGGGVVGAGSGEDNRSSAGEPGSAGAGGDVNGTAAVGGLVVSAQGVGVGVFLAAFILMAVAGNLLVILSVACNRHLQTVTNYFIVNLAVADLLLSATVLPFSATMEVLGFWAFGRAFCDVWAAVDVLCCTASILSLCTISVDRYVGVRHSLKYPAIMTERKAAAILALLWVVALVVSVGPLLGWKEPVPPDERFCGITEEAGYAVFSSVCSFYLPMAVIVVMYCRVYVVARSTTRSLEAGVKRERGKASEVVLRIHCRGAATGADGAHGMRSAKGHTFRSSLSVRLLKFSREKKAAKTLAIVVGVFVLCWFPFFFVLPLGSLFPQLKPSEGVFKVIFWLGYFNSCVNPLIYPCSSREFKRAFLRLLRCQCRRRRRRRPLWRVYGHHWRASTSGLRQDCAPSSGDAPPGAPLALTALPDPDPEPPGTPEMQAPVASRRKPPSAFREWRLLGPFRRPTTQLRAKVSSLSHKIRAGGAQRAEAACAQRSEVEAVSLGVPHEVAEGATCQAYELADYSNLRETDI
T2 sequence (P35368 whole entry): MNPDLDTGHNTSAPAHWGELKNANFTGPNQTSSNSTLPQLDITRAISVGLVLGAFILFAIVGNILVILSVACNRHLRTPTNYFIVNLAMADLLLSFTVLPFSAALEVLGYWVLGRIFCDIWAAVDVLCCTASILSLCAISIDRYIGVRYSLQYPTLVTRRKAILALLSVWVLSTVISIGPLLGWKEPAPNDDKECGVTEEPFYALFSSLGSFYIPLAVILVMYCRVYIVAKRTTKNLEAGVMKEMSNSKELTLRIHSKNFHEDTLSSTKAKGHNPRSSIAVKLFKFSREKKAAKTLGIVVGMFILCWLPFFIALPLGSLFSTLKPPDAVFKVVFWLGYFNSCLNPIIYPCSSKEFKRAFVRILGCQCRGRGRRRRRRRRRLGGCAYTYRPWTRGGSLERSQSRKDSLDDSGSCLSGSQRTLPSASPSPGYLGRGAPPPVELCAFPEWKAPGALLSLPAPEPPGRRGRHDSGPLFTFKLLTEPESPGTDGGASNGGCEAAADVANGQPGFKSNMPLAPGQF

| SMILES | Ki [1] | Ki [2] |
| --- | --- | --- |
| c1cnc2cc(NC3=NCCN3)ccc2n1 | 0.041 µM | – |
| COc1ccc(NC2=NCCN2)c(C)c1OC | 0.0052 µM | 1.5 µM |
| Cc1c(NC2=NCCN2)ccc2c1OCCO2 | 0.00025 µM | 0.13 µM |
| N=C(N)Nc1ccc2nccnc2c1Br | 0.041 µM | 17 µM |
| Cc1c(NC2=NCCN2)ccc2c1NCCO2 | 0.0012 µM | – |
| C/N=C(\NC)Nc1ccc2nccnc2c1Br | 5.3 µM | 10 µM |
| Cc1ccccc1N=C1NCCN1 | 0.0078 µM | 2.5 µM |
| CN(C1=NCCN1)c1ccc2c(c1)OCCO2 | 0.18 µM | 30 µM |
| Cc1c(NC2=NCCN2)ccc2c1NCCN2 | 0.0096 µM | 8.9 µM |
| c1cc2c(cc1NC1=NCCN1)OCCO2 | – | 2.4 µM |

From ChEMBL document CHEMBL1150520, “Analogs of UK 14,304: Structural features responsible for 2 adrenoceptor activity” (Bioorg Med Chem Lett, 1995)
